ChEMBL document CHEMBL1201862, “PubChem BioAssay data set” (2004)
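Growth conditions: 96-well plates. Treatment: test compound, 48 hours, 5 concentrations. Analysis: linear interpolation between bracketing concentrations; unreached endpoints set to highest concentration. Here, GI50 denotes the concentration required for 50% inhibition of growth.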 Calls of active or inactive are those of the source. Rule as the data show it: active = GI50 up to about 1.1 µM and inactive = higher.

What was measured:
Test in all cases: DTP human tumour cell line panel, 48 h
NCI-H460 = tested on: NCI-H460
786-0 = tested on: 786-0
RPMI-8226 = tested on: RPMI-8226
DU-145 = tested on: DU-145
OVCAR-3 = tested on: OVCAR-3
A549 = tested on: A549
UACC-62 = tested on: UACC-62
OVCAR-5 = tested on: OVCAR-5
T47D = tested on: T47D
HOP-92 = tested on: HOP-92
MDA-MB-435 = tested on: MDA-MB-435
OVCAR-4 = tested on: OVCAR-4
SR = tested on: SR
MDA-N = tested on: MDA-N
SNB-19 = tested on: SNB-19
Hs-578T = tested on: Hs-578T
M14 = tested on: M14
SK-OV-3 = tested on: SK-OV-3
SK-MEL-28 = tested on: SK-MEL-28

Row | SMILES | GI50 (NCI-H460) | GI50 (786-0) | GI50 (RPMI-8226) | GI50 (DU-145) | GI50 (OVCAR-3) | GI50 (A549) | GI50 (UACC-62) | GI50 (OVCAR-5) | GI50 (T47D) | GI50 (HOP-92) | GI50 (MDA-MB-435) | GI50 (OVCAR-4) | GI50 (SR) | GI50 (MDA-N) | GI50 (SNB-19) | GI50 (Hs-578T) | GI50 (M14) | GI50 (SK-OV-3) | GI50 (SK-MEL-28)
1 | COc1ccc(N)c(C(O)CCNC(C)=O)c1 (stereo not drawn) | > 100 µM (inactive) | > 100 µM (inactive) | > 100 µM (inactive) | > 100 µM (inactive) | > 100 µM (inactive) | > 100 µM (inactive) | > 100 µM (inactive) | > 100 µM (inactive) | > 100 µM (inactive) | > 100 µM (inactive) | > 100 µM (inactive) | > 100 µM (inactive) | > 100 µM (inactive) | > 100 µM (inactive) | > 100 µM (inactive) | > 100 µM (inactive) | > 100 µM (inactive) | > 100 µM (inactive) | 
2 | CCOc1ccccc1/N=N/C1C(=O)N(C(=O)CC(=O)Nc2ccccc2C)N=C1C (stereo not drawn) | 43.7 µM (inactive) | 46.9 µM (inactive) | 43.9 µM (inactive) | 79.3 µM (inactive) | 87.9 µM (inactive) | 89.7 µM (inactive) | 21.3 µM (inactive) | > 100 µM (inactive) | 51.9 µM (inactive) | 17.1 µM (inactive) | > 100 µM (inactive) | > 100 µM (inactive) | > 100 µM (inactive) | > 100 µM (inactive) |  | 6.55 µM (inactive) | > 100 µM (inactive) | 19.7 µM (inactive) | > 100 µM (inactive)
3 | O=C1NC(N2CCCC(CO)C2)=N/C1=C\c1ccc(Cl)cc1 (stereo not drawn) |  | > 100 µM (inactive) | > 100 µM (inactive) | > 100 µM (inactive) | > 100 µM (inactive) | > 100 µM (inactive) | > 100 µM (inactive) | > 100 µM (inactive) | 75.9 µM (inactive) | 90.8 µM (inactive) | > 100 µM (inactive) | > 100 µM (inactive) | > 100 µM (inactive) | > 100 µM (inactive) | > 100 µM (inactive) | > 100 µM (inactive) | > 100 µM (inactive) | > 100 µM (inactive) | > 100 µM (inactive)
4 | O=C(NC(CO)Cc1ccc(Oc2cc(CC(CO)NC(=O)OCc3ccccc3)ccc2OC(=O)OCc2ccccc2)cc1)OCc1ccccc1 (stereo not drawn) | 17.8 µM (inactive) | 25.1 µM (inactive) | 2.94 µM (inactive) | 21 µM (inactive) | 19.5 µM (inactive) | 11.6 µM (inactive) |  | 24.4 µM (inactive) | 5.18 µM (inactive) | 19.5 µM (inactive) | 16.6 µM (inactive) | 18.8 µM (inactive) | 4.19 µM (inactive) | 16.6 µM (inactive) | 22.4 µM (inactive) | 5.97 µM (inactive) | 18.2 µM (inactive) | 21.3 µM (inactive) | 17.9 µM (inactive)
5 | O=C(O)c1cc2ccccc2c(/N=N\c2cc(C(F)(F)F)ccc2Cl)c1O | 38.5 µM (inactive) | 56.1 µM (inactive) | 17.8 µM (inactive) | 74.1 µM (inactive) | 22.5 µM (inactive) | 27.9 µM (inactive) |  | > 100 µM (inactive) | 48.8 µM (inactive) | 53.8 µM (inactive) | > 100 µM (inactive) | 86.9 µM (inactive) | 24.8 µM (inactive) | > 100 µM (inactive) | 1.17 µM (inactive) | 37.6 µM (inactive) | > 100 µM (inactive) | > 100 µM (inactive) | 83 µM (inactive)
6 | COc1cc(C(C)(C)C)c(OC(=O)/C=C/C(=O)O/C=C/[N+](=O)[O-])c(C(C)(C)C)c1 | 66.4 µM (inactive) | 34.4 µM (inactive) | > 100 µM (inactive) | 38.2 µM (inactive) | 32.7 µM (inactive) | 21.4 µM (inactive) | 33.2 µM (inactive) | > 100 µM (inactive) | 41.8 µM (inactive) | > 100 µM (inactive) | 21.2 µM (inactive) |  | 63.8 µM (inactive) | 44.7 µM (inactive) |  | 28.6 µM (inactive) | 21.1 µM (inactive) | > 100 µM (inactive) | 
7 | COc1ccc(C(C)NNC(=O)c2cc[n+]([BH2-]C#N)cc2)cc1OC (stereo not drawn) | > 100 µM (inactive) | > 100 µM (inactive) | > 100 µM (inactive) | > 100 µM (inactive) | > 100 µM (inactive) | > 100 µM (inactive) | > 100 µM (inactive) | > 100 µM (inactive) | > 100 µM (inactive) | > 100 µM (inactive) | > 100 µM (inactive) | > 100 µM (inactive) | > 100 µM (inactive) | > 100 µM (inactive) | > 100 µM (inactive) | > 100 µM (inactive) | > 100 µM (inactive) | 54.3 µM (inactive) | > 100 µM (inactive)
8 | CC/C=C/c1cc2c(cc1O)CCC1C2CC[C@@]2(C)C1CC[C@@H]2O (stereo partly drawn) | 0.82 µM (active) | 2.34 µM (inactive) | 1.89 µM (inactive) | 2.76 µM (inactive) | 0.265 µM (active) | 4.12 µM (inactive) |  | 12.5 µM (inactive) | 2.86 µM (inactive) | 12 µM (inactive) | 0.246 µM (active) | 19.9 µM (inactive) | 0.34 µM (active) | 0.199 µM (active) | 2.6 µM (inactive) | 1.65 µM (inactive) | 1.17 µM (inactive) | 2.43 µM (inactive) | 11.3 µM (inactive)
